In the supplement of paper PMC10307832:

How the values were obtained:
Assay in all cases: relative viability (nuclei count vs DMSO), 5 days (fraction); higher = more cells survive
Irinotecan + Bortezomib = compound: CCc1c2c(nc3ccc(OC(=O)N4CCC(N5CCCCC5)CC4)cc13)-c1cc3c(c(=O)n1C2)COC(=O)[C@]3(O)CC [Irinotecan] + CC(C)C[C@H](NC(=O)[C@H](Cc1ccccc1)NC(=O)c1cnccn1)B(O)O [Bortezomib] (partner 0.002 µM)
Outline: (§1)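 Relative viability divides the nuclei count in treated wells by that in vehicle wells. Lung cancer cell lines were seeded in 1536-well plates, dosed by pin tool the next day, and fixed and stained after 5 days in one step with final 0.05% Triton X-100, 1% formaldehyde and 1 ug/ml Hoechst. Dosing was a single drug or a fixed anchor-drug dose plus five library-drug doses (not always all listed) in √10 steps, and values are medians of duplicate plates imaged at 4×.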

MK-8033 + Crizotinib = compound: Cn1cc(-c2cnc3ccc4ccc(CS(=O)(=O)NCc5ccccn5)cc4c(=O)c3c2)cn1 [MK-8033] + C[C@@H](Oc1cc(-c2cnn(C3CCNCC3)c2)cnc1N)c1c(Cl)ccc(F)c1Cl [Crizotinib] (partner 1 µM)
Outline: as §1

MK-8033 + Lapatinib = compound: Cn1cc(-c2cnc3ccc4ccc(CS(=O)(=O)NCc5ccccn5)cc4c(=O)c3c2)cn1 [MK-8033] + CS(=O)(=O)CCNCc1ccc(-c2ccc3ncnc(Nc4ccc(OCc5cccc(F)c5)c(Cl)c4)c3c2)o1 [Lapatinib] (partner 2 µM)
Outline: as §1

MK-8033 + Foretinib = compound: Cn1cc(-c2cnc3ccc4ccc(CS(=O)(=O)NCc5ccccn5)cc4c(=O)c3c2)cn1 [MK-8033] + COc1cc2c(Oc3ccc(NC(=O)C4(C(=O)Nc5ccc(F)cc5)CC4)cc3F)ccnc2cc1OCCCN1CCOCC1 [Foretinib] (partner 0.25 µM)
Outline: as §1

Row | Cell Line | relative viability (Irinotecan + Bortezomib; first compound 0.6325 µM) | relative viability (Irinotecan + Bortezomib; first compound 2 µM) | relative viability (Irinotecan + Bortezomib; first compound 6.325 µM) | relative viability (Irinotecan + Bortezomib; first compound 20 µM) | relative viability (MK-8033 + Crizotinib; first compound 0.02 µM) | relative viability (MK-8033 + Crizotinib; first compound 0.06325 µM) | relative viability (MK-8033 + Crizotinib; first compound 0.2 µM) | relative viability (MK-8033 + Crizotinib; first compound 0.6325 µM) | relative viability (MK-8033 + Crizotinib; first compound 2 µM) | relative viability (MK-8033 + Lapatinib; first compound 0.02 µM) | relative viability (MK-8033 + Lapatinib; first compound 0.06325 µM) | relative viability (MK-8033 + Lapatinib; first compound 0.2 µM) | relative viability (MK-8033 + Lapatinib; first compound 0.6325 µM) | relative viability (MK-8033 + Lapatinib; first compound 2 µM) | relative viability (MK-8033 + Foretinib; first compound 0.02 µM) | relative viability (MK-8033 + Foretinib; first compound 0.06325 µM) | relative viability (MK-8033 + Foretinib; first compound 0.2 µM) | relative viability (MK-8033 + Foretinib; first compound 0.6325 µM) | relative viability (MK-8033 + Foretinib; first compound 2 µM)
1 | NCI-H1734 | 0.797 | 0.674 | 0.207 | 0.174 | 0.682 | 0.547 | 0.645 | 0.508 | 0.595 | 1.11 | 0.88 | 1.02 | 1.09 | 1.01 | 0.829 | 0.665 | 0.78 | 0.861 | 0.856
2 | NCI-H727 | 0.358 | 0.57 | 0.463 | 0.464 | 0.811 | 0.677 | 0.754 | 0.886 | 0.792 | 0.759 | 0.72 | 0.665 | 0.748 | 0.858 | 0.817 | – | 0.859 | 0.685 | 1.06
3 | HOP-62 | 0.642 | 0.2 | 0.112 | 0.179 | 0.857 | 0.899 | 0.808 | 0.894 | 0.878 | 1.01 | 0.753 | 0.786 | 1.07 | 0.987 | 1.07 | 1.07 | 1.03 | 1.06 | 1.18
4 | NCI-H2405 | 0.573 | 0.931 | 0.662 | 0.299 | 0.809 | 0.783 | 0.842 | 0.871 | 0.811 | 0.967 | 0.944 | 1.09 | 1.03 | 1.1 | 1.01 | 1.02 | 0.988 | 1.09 | 1.04
5 | A-427 | – | 0.427 | 0.198 | 0.187 | 0.933 | 0.734 | 0.824 | 0.88 | 0.865 | 1.05 | 1.1 | 0.947 | 1.1 | 1.08 | 1.04 | 1.04 | 0.903 | 1.11 | 1
6 | LCLC-97TM1 | 0.41 | 0.387 | 0.148 | 0.176 | 0.393 | 0.261 | 0.508 | 0.383 | 0.379 | 1.35 | 1.06 | 0.656 | 0.957 | 0.929 | 0.9 | 0.924 | 0.925 | 0.951 | 0.969
7 | NCI-H3122 | 1.05 | 0.824 | 0.252 | 0.259 | 0.335 | 0.249 | 0.311 | 0.272 | 0.286 | 1.03 | 0.98 | 1.01 | 1.01 | 0.993 | 0.962 | 0.958 | 0.93 | 0.908 | 0.974
8 | RERF-LC-KJ | – | 1.16 | 0.563 | 0.468 | 0.867 | 0.849 | 0.769 | 0.825 | 0.79 | 0.901 | 0.823 | 0.854 | 0.798 | 0.815 | 0.869 | 0.854 | 0.829 | 0.928 | 0.875
9 | ABC-1 | – | 0.276 | 0.324 | 0.103 | 1.06 | 1.14 | 1.06 | 0.996 | 1.04 | 1.19 | 1.35 | 0.955 | 1.1 | 1.43 | 1.03 | 0.97 | 0.906 | 0.985 | 1.11
10 | HCC-15 | 0.603 | 0.623 | 0.374 | 0.176 | 0.778 | 0.796 | 0.762 | 0.816 | 0.808 | 0.849 | 0.801 | 0.785 | 0.805 | 0.856 | 0.977 | 0.919 | 0.994 | 1.04 | 1.02
11 | Calu-6 | 0.816 | 0.551 | 0.296 | 0.114 | 0.831 | 0.77 | 0.704 | 0.828 | 0.695 | 1.06 | 1.03 | 0.971 | 1.15 | 1.19 | 0.833 | 0.815 | 0.874 | 0.914 | 0.81
12 | SK-LU-1 | 0.887 | 0.672 | 0.291 | 0.47 | 0.873 | 0.874 | 0.8 | 0.835 | 1.02 | 0.893 | 0.82 | 0.879 | 0.807 | 0.859 | 0.843 | 0.813 | 0.837 | 0.849 | 0.815
13 | H3255 | 0.432 | 0.529 | 0.299 | 0.392 | 0.951 | 0.759 | 0.775 | 0.625 | 0.787 | 0.24 | 0.233 | 0.232 | 0.261 | 0.226 | 0.848 | 0.619 | 0.831 | 0.596 | 0.757
14 | NCI-H1666 | 0.608 | 0.419 | 0.414 | 0.214 | 0.909 | 0.942 | 0.982 | 0.999 | 1.01 | 0.708 | 0.505 | 0.519 | 0.656 | 0.587 | 1.02 | 0.842 | 0.911 | 0.953 | 1.01
15 | 201T | – | 1.12 | 1.06 | 0.942 | 1.07 | 0.991 | 1.03 | 0.874 | 1.03 | 1.03 | 0.906 | 0.995 | 1.07 | 1.07 | 1.06 | 1.05 | 1.13 | 1.19 | 1.1
16 | NCI-H1755 | 0.9 | 0.935 | 0.355 | 0.327 | 0.811 | 0.782 | 0.878 | 0.847 | 0.803 | 1.06 | 0.986 | 1.02 | 1.02 | 0.957 | 0.961 | 0.884 | 0.865 | 0.889 | 0.949
17 | LOU-NH91 | 0.486 | 0.442 | 0.359 | 0.413 | 0.724 | – | 0.715 | 0.732 | 0.75 | 0.785 | – | 0.735 | 0.772 | 0.745 | 0.94 | 0.583 | 0.906 | 0.878 | 0.9
